# Measurements: patent publication US20020137929A1, “1 - (3-heterocyclylphenyl) isothiourea, -isourea, -guanidine and -amidine herbicidal agents” (Intellectual Property Department, BASF Aktiengesellschaft, priority 1998, published 2002)
# Key:
# AMBEL (Ragweed, Common) = assay: Postemergence herbicidal evaluation; format: in vivo, Ambrosia artemisifolia; details: postemergence
# Experimental: (§1) In the tests, seedling plants are grown in jiffy flats for about two weeks. The test compounds are dispersed in 50/50 acetone/water mixtures containing 0.5% TWEEN®20, a polyoxyethylene sorbitan monolaurate surfactant of Atlas Chemical Industries, in sufficient quantities to provide the equivalent of about 0.0156 kg to 0.500 kg per hectare of active compound when applied to the plants through a spray nozzle operating at 40 psi for a predetermined time. After spraying, the plants are placed on greenhouse benches and are cared for in accordance with conventional greenhouse procedures. From four to five weeks after treatment, the seedling plants are examined and rated according to the rating system set forth below. Where more than one test is involved for a given compound, the data are averaged.
# (§2) Plant species employed in these evaluations are reported by header abbreviation, common name and scientific name.
# (§3) Results of herbicide evaluation are expressed on a rating scale (0-9). The scale is based upon a visual observation of plant stand, vigor, malformation, size, chlorosis and overall plant appearance as compared with a control.
# GALAP (Galium) = assay: Postemergence herbicidal evaluation; format: in vivo, Galium aparine; details: postemergence
# Outline: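 Compound is applied as a foliar spray to seedlings about two weeks old, formulated in equal parts acetone and water with 0.5% TWEEN 20 and delivered at 40 psi to give about 0.0156–0.500 kg per hectare. Injury is rated visually 0–9 after four to five weeks.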
# [1] = test system: TRZAWR (Wheat, Winter, cv Riband); assay: Postemergence herbicidal evaluation; format: in vivo, Triticum aestivum; details: postemergence
# Experimental: as §1, §2, §3
# [2] = test system: CHEAL (Lambsquarters, Common); assay: Preemergence herbicidal evaluation; format: in vivo, Chenopodium album; details: rated 4-5 weeks after treatment
# Source text: as §3
# The preemergence herbicidal activity of the test compounds of the present invention is exemplified by the following tests in which the seeds of a variety of monocotyledonous and dicotyledonous plants are separately mixed with potting soil and planted on top of approximately one inch of soil in separate pint cups. After planting, the cups are sprayed with the selected aqueous acetone solution containing test compound in sufficient quantity to provide the equivalent of about 0.0156 to 0.500 kg per hectare of test compound per cup. The treated cups are then placed on greenhouse benches, watered and cared for in accordance with conventional greenhouse procedures. From four to five weeks after treatment, the tests are terminated and each cup is examined and rated according to the rating system provided in Example 37.
# The compounds evaluated are reported by compound number given in Example 37.
Compound,Preemergence herbicidal rating CHEAL ([2]; rate 0.0313 kg/ha),Preemergence herbicidal rating CHEAL ([2]; rate 0.0625 kg/ha),Preemergence herbicidal rating CHEAL ([2]; rate 0.1250 kg/ha),Preemergence herbicidal rating CHEAL ([2]; rate 0.2500 kg/ha),Preemergence herbicidal rating CHEAL ([2]; rate 0.0156 kg/ha),"Herbicidal rating AMBEL (AMBEL (Ragweed, Common); rate 0.0156 kg/ha)","Herbicidal rating AMBEL (AMBEL (Ragweed, Common); rate 0.0313 kg/ha)","Herbicidal rating AMBEL (AMBEL (Ragweed, Common); rate 0.0625 kg/ha)",Herbicidal rating GALAP (GALAP (Galium); rate 0.0156 kg/ha),Herbicidal rating GALAP (GALAP (Galium); rate 0.0313 kg/ha),Herbicidal rating GALAP (GALAP (Galium); rate 0.0625 kg/ha),Herbicidal rating TRZAWR ([1]; rate 0.0156 kg/ha),Herbicidal rating TRZAWR ([1]; rate 0.0313 kg/ha),Herbicidal rating TRZAWR ([1]; rate 0.0625 kg/ha),other results
"COC(=O)COC(=O)CN1C(=O)CSC1=Nc1cc(-n2c(=O)cc(C(F)(F)F)n(C)c2=O)c(F)cc1Cl [Compound 108, 2-{{2-Chloro-5-[3,6-dihydro-3-methyl-2,6-dioxo-4-(trifluoromethyl)-1(2H)-pyrimidinyl]-4-fluorophenyl}imino}-4-oxo-3-thiazolidineacetic acid, ester with methyl glycolate]",0.0,9.0,9.0,9.0,–,–,–,–,–,–,–,–,–,–,"Herbicidal rating AMBEL (AMBEL (Ragweed, Common); rate 0.0158 kg/ha): 4.0; Herbicidal rating AMBEL (AMBEL (Ragweed, Common); rate 0.0315 kg/ha): 5.0; Herbicidal rating AMBEL (AMBEL (Ragweed, Common); rate 0.0630 kg/ha): 5.0; Herbicidal rating GALAP (GALAP (Galium); rate 0.0158 kg/ha): 1.0; Herbicidal rating GALAP (GALAP (Galium); rate 0.0315 kg/ha): 1.0; Herbicidal rating GALAP (GALAP (Galium); rate 0.0630 kg/ha): 3.0; Herbicidal rating TRZAWR ([1]; rate 0.0158 kg/ha): 3.0; Herbicidal rating TRZAWR ([1]; rate 0.0315 kg/ha): 3.5; Herbicidal rating TRZAWR ([1]; rate 0.0630 kg/ha): 4.5"
CC(C)OC(=O)CN1C(=O)CSC1=Nc1cc(-n2c(=O)cc(C(F)(F)F)n(C)c2=O)c(F)cc1Cl [Compound 110],9.0,9.0,9.0,9.0,8.0,–,–,–,–,–,–,–,–,–,"Herbicidal rating AMBEL (AMBEL (Ragweed, Common); rate 0.0158 kg/ha): 5.0; Herbicidal rating AMBEL (AMBEL (Ragweed, Common); rate 0.0315 kg/ha): 4.0; Herbicidal rating AMBEL (AMBEL (Ragweed, Common); rate 0.0630 kg/ha): 9.0; Herbicidal rating GALAP (GALAP (Galium); rate 0.0158 kg/ha): 1.0; Herbicidal rating GALAP (GALAP (Galium); rate 0.0315 kg/ha): 3.0; Herbicidal rating GALAP (GALAP (Galium); rate 0.0630 kg/ha): 4.0; Herbicidal rating TRZAWR ([1]; rate 0.0158 kg/ha): 2.5; Herbicidal rating TRZAWR ([1]; rate 0.0315 kg/ha): 3.5; Herbicidal rating TRZAWR ([1]; rate 0.0630 kg/ha): 4.0; Preemergence herbicidal rating CHEAL ([2]; rate 0.5000 kg/ha): 9.0"
"Cn1c(C(F)(F)F)cc(=O)n(-c2cc(N=C3SCC(=O)N3CC(=O)OC3CCCC3)c(Cl)cc2F)c1=O [Compound 120, Cyclopentyl 2-{{2-chloro-5-[3,6-dihydro-3-methyl-2,6-dioxo-4-(trifluoromethyl)-1(2H)-pyrimidinyl]-4-fluorophenyl}imino}-4-oxo-3-thiazolidineacetate]",9.0,9.0,9.0,9.0,9.0,9.0,9.0,9.0,2.0,3.0,3.0,3.5,4.5,5.0,–
"CC(C)COC(=O)CN1C(=O)CSC1=Nc1cc(-n2c(=O)cc(C(F)(F)F)n(C)c2=O)c(F)cc1Cl [Compound 121, Isobutyl 2-{{2-chloro-5-[3,6-dihydro-3-methyl-2,6-dioxo-4-(trifluoromethyl)-1(2H)-pyrimidinyl]-4-fluorophenyl}imino}-4-oxo-3-thiazolidineacetate]",9.0,9.0,9.0,9.0,9.0,9.0,9.0,9.0,0.0,0.0,3.0,3.0,4.0,5.0,–
"Cn1c(C(F)(F)F)cc(=O)n(-c2cc(N=C3SCC(=O)N3CC(=O)OCC3CCCCC3)c(Cl)cc2F)c1=O [Compound 123, Cyclohexylmethyl 2-{{2-chloro-5-[3,6-dihydro-3-methyl-2,6-dioxo-4-(trifluoromethyl)-1(2H)-pyrimidinyl]-4-fluorophenyl}imino}-4-oxo-3-thiazolidineacetate]",9.0,9.0,9.0,9.0,9.0,9.0,9.0,9.0,2.0,4.0,6.0,4.0,4.5,6.0,"Herbicidal rating AMBEL (AMBEL (Ragweed, Common); rate 0.1250 kg/ha): 9.0; Herbicidal rating GALAP (GALAP (Galium); rate 0.1250 kg/ha): 7.0; Herbicidal rating TRZAWR ([1]; rate 0.1250 kg/ha): 6.5; Preemergence herbicidal rating CHEAL ([2]; rate 0.5000 kg/ha): 9.0"
"CCOC(=O)CN1C(=O)C(C(=O)OC)SC1=Nc1cc(-n2c(=O)cc(C(F)(F)F)n(C)c2=O)c(F)cc1Cl (stereo not shown) [Compound 128, 5-Carboxy-2-{{2-chloro-5-[3,6-dihydro-3-methyl-2,6-dioxo-4-(trifluoromethyl)-1(2H)-pyrimidinyl]-4-fluorophenyl}imino}-4-oxo-3-thiazolidineacetic acid, 3-ethyl methyl ester]",7.0,9.0,9.0,9.0,9.0,7.0,9.0,9.0,1.0,1.0,3.0,2.0,3.0,3.5,–
"Cc1ccccc1CN1C(=O)CSC1=Nc1cc(-n2c(=O)cc(C(F)(F)F)n(C)c2=O)c(F)cc1Cl [Compound 129, 3-{4-Chloro-2-fluoro-5-{[3-(o-methylbenzyl)-4-oxo-2-thiazolidinylidene]amino}phenyl}-1-methyl-6-(trifluoromethyl)-2,4 (1H,3H)-pyrimidinedione]",3.0,9.0,9.0,9.0,4.0,9.0,9.0,9.0,2.0,4.0,4.0,3.0,3.5,3.5,–
Cn1c(C(F)(F)F)cc(=O)n(-c2cc(N=C3SCC(=O)N3Cc3ccccn3)c(Cl)cc2F)c1=O [Compound 131],–,–,–,–,–,7.0,9.0,9.0,1.0,3.0,3.0,3.0,3.0,3.0,"Preemergence herbicidal rating CHEAL ([2]; rate 0.0313 kg/ha, rating scale 0-9): 4.0; Preemergence herbicidal rating CHEAL ([2]; rate 0.0625 kg/ha, rating scale 0-9): 9.0; Preemergence herbicidal rating CHEAL ([2]; rate 0.1250 kg/ha, rating scale 0-9): 9.0; Preemergence herbicidal rating CHEAL ([2]; rate 0.2500 kg/ha, rating scale 0-9): 9.0"
